The values below come from patent US20180092923A1, “METHODS FOR TREATING LYSOSOMAL STORAGE DISORDERS” (BIOMARIN PHARMACEUTICAL INC., priority 2015, published 2018).

The test system of the assay is GM01896 cells. Kind of assay: MPS II cellular assay. The assay is classed as cell-based. The settings on record: Homo sapiens, Fibroblast; dermal fibroblasts from an individual with MPS II (GM01896); heparan sulfate disaccharide I2a4, I2a6, I2S0 and/or I2S6 detected by LC-MS. As for the experimental part: Dermal fibroblasts from humans with an MPS disorder and from healthy donors were grown. Cells were expanded and kept in culture for analysis.
Human foreskin fibroblasts are obtained from the American Type Culture Collection (CRL-1634). […] Sulfamidase activity in cell extracts is measured with 4-methylumbelliferyl-α-D-N-sulfoglucosaminide according the vendors instructions substituting Tris-acetate buffer (pH 6.5; Moscerdam). […]
Cell monolayers are washed with phosphate buffered saline and detached by treatment with GIBCO trypsin-EDTA solution (Invitrogen). […] The amount of protein is determined by bicinchoninic acid (BCA assay, Thermo Scientific). […]
Enzymatically depolymerized GAG preparations are differentially mass labeled by reductive amination with [^12C6]aniline. […] Samples are then analyzed by LC-MS using an LTQ Orbitrap Discovery electrospray ionization mass spectrometer (Thermo Scientific) equipped with quaternary HPLC pump (Finnigan Surveyor MS pump) and a reverse-phase capillary column.
For MPS II, GM01896 cells were treated with a compound described herein and the heparan sulfate disaccharide detected was [^12C6]aniline-tagged I2a4, I2a6, I2S0 and/or I2S6. […] Cell viability was monitored using alamar blue or ATP quantification. IC50's were calculated using curve fitting within the ChemInnovation CBIS database system.

For `Cc1cccc(/C=N/Nc2cc(N3CCOCC3)nc(OCCc3ccccn3)n2)c1` [Compound 11, (E)-4-(6-(2-(3-methylbenzylidene)hydrazinyl)-2-(2-(pyridin-2-yl)ethoxy)pyrimidin-4-yl)morpholine], the IC50 (commonly the concentration at which inhibition is half-maximal) amounted to 170 nM. This counts as sub-micromolar.
